From article PMC6713165, “Identification of 1H-pyrazolo[3,4-b]pyridine derivatives as potent ALK-L1196M inhibitors” (Journal of Enzyme Inhibition and Medicinal Chemistry, 2019)
Where “and” joins values, the source holds several entries; their conditions need not be identical. Identical values can stand only once. Like-named read-outs stand apart in the source and are kept apart here.

Assays:
ALK wt-TEL Ba/F3 cells = test: Anti-proliferation assay (CTG), ALK wt-TEL Ba/F3; assay type: cell-based; conditions: Mus musculus, BaF3
Method: (§1) ALK wt-TEL, ALK L1196M-TEL transformed Ba/F3 and H2228 cell lines were cultured in RPMI1640 (Welgene, # LM011-01). […] Parental Ba/F3 cells were cultured in RPMI1640 media supplemented with 10% foetal bovine serum and 1% penicillin/streptomycin solution in the presence of IL-3. The cells were maintained in a humidified atmosphere containing 5% CO2 at 37 °C.
(§2) Cells (ALK wt-TEL, ALK L1196M-TEL and Parental Ba/F3: 1 × 10^4, H2228: 5 × 10^3) were plated in 96 well tissue culture plates. Each compound was added to each well at 10 dose points of three-fold serial dilution in DMSO. After treatment with each compound for 72 h, CTG assay solution (Promega, # G7572) was added to each well.

c-Src = c-Src (Homo sapiens, UniProt P12931); test: Biochemical kinase assay, c-Src
Method: (§3) Biochemical kinase assay was performed by methods previously reported. Kinase reactions of all test compounds except 10g were carried out at 10 µM ATP. Kinase reaction of 10g was performed at three different concentrations of ATP (10/50/100 µM).

ALK-C1156Y = ALK-C1156Y (Homo sapiens, UniProt Q9UM73, C1156Y); test: Radiometric biochemical kinase assay, ALK-C1156Y
Method: as §3

[1] = Permeability assessment using Caco-2 cells; assay type: in vitro ADME, human; conditions: human
Method: (§4) Stock solutions (10 mM) of reference compounds and 10g were diluted to a concentration of 10 µM with the transport buffer (HBSS + 1%BSA) and the test compounds were applied to the apical or basolateral side of the cell monolayer. […] In addition, the efflux ratio of each compound was also determined. Reference compounds and 10g were quantified by LC-MS/MS analysis based on the peak area ratio of analyte/the internal standard.

Caco-2 cells = test: Permeability assessment using Caco-2 cells; assay type: in vitro ADME, human
Method: as §4

ALK-F1174L = ALK-F1174L (Homo sapiens, UniProt Q9UM73, F1174L); test: Radiometric biochemical kinase assay, ALK-F1174L
Method: as §3

H2228 cells [2] = test: Cell cycle arrest analysis (PI, FACS), H2228; assay type: cell-based; conditions: H2228, 1 µM, 24 h, in words
Method: (§5) After 24–48 h following compound treatment, cells were harvested and stained with annexin V (1:500 diluted in annexin V buffer) for 30 min and PI (1:200) solution for 30 min. 1 × 10^6 cells were analysed using flow cytometric analysis. For the cell cycle arrest analysis, cells were harvested by trypsinisation and fixed with 70% ethanol overnight at −20 °C. The next day, cells were harvested and washed with cold DPBS at 500 × g. The cells were suspended in RNase/PI solution (Cell Signalling Technologies, # 4087).

Lyn = Lyn (Homo sapiens, UniProt P07948); test: Biochemical kinase assay, Lyn
Method: as §3

Parental Ba/F3 cells = test: Anti-proliferation assay (CTG), parental Ba/F3; assay type: cell-based; conditions: Mus musculus, BaF3, 72 h, with IL-3, mean ± SD of three independent experiments, read-out: GI50 Ba/F3 cell lines Parental
Method: as §1, §2

[3] = biological target: IRK (insulin receptor kinase) (Homo sapiens, UniProt P06213); test: Biochemical kinase assay, IRK
Method: as §3

ALK-L1196M = ALK-L1196M (Homo sapiens, UniProt Q9UM73, L1196M); test: Radiometric biochemical kinase assay, ALK-L1196M; conditions: radiometric kinase assay, 10 µM ATP
Method: as §3

[4] = test system: ALK L1196M-TEL Ba/F3 cells; test: Anti-proliferation assay (CTG), ALK L1196M-TEL Ba/F3; assay type: cell-based
Method: as §1, §2

c-Met = c-Met (Homo sapiens, UniProt P08581); test: Biochemical kinase assay, c-Met
Method: as §3

[5] = test system: ALK L1196M-TEL Ba/F3 cells; test: Apoptosis analysis (annexin V-FITC/PI, FACS), ALK L1196M-TEL Ba/F3; assay type: cell-based
Method: as §5, with “g.” for “g. The cells were suspended in RNase/PI solution (Cell Signalling Technologies, # 4087).”

ALK-T1151-L1152insT = ALK-T1151-L1152insT (Homo sapiens, UniProt Q9UM73, INS1151T); test: Radiometric biochemical kinase assay, ALK-T1151-L1152insT
Method: as §3

ALK-wt = ALK-wt (Homo sapiens, UniProt Q9UM73); test: Radiometric biochemical kinase assay, ALK-wt
Method: as §3

H2228 cells [6] = test: Apoptosis analysis (annexin V-FITC/PI, FACS), H2228; assay type: cell-based; conditions: H2228, 48 h, in words
Method: as §5, with “g.” for “g. The cells were suspended in RNase/PI solution (Cell Signalling Technologies, # 4087).”

Chain of ALK-wt (Q9UM73 19-1620): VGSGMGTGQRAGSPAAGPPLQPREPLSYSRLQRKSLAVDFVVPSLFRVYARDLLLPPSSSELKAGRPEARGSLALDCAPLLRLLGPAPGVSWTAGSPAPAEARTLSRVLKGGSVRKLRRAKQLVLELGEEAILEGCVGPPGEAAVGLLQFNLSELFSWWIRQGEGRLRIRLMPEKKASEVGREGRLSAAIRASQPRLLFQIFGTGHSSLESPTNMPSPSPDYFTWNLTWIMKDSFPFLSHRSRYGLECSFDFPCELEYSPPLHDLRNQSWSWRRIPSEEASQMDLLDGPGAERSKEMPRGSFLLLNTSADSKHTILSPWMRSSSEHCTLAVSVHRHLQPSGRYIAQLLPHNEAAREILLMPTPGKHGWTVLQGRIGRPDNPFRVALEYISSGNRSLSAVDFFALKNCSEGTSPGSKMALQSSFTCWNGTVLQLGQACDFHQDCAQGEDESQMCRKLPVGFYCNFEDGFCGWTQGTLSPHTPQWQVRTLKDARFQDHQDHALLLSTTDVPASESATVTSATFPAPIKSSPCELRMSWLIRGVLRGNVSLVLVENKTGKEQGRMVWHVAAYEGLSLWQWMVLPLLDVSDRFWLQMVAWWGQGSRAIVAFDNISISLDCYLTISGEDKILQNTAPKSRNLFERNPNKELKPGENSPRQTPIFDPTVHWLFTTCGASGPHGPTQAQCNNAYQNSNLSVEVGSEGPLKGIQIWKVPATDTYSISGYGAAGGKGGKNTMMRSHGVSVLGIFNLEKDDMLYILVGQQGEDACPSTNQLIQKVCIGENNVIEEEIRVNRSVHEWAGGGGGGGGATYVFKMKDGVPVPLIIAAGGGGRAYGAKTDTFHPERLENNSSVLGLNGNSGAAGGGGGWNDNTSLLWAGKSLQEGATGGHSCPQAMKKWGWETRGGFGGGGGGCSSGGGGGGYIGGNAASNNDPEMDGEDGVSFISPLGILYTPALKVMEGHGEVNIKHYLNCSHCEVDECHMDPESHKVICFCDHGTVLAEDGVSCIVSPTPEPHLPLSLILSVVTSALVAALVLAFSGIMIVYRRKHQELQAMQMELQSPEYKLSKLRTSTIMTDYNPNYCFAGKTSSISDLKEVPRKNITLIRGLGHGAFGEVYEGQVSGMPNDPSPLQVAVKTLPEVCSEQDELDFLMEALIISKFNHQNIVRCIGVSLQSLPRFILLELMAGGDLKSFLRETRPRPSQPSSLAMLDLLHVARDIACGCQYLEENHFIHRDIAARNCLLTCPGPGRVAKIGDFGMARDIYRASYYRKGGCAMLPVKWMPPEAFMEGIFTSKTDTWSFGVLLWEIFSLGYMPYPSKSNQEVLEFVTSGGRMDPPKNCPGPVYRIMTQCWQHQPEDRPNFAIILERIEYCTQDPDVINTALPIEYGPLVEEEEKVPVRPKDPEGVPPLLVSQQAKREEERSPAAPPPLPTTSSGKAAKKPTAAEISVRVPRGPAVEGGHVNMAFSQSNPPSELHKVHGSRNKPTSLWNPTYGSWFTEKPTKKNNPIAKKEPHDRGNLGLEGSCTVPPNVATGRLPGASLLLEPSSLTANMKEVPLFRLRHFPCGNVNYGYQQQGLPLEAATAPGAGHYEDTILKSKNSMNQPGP
Chain of c-Met (P08581 25-1390): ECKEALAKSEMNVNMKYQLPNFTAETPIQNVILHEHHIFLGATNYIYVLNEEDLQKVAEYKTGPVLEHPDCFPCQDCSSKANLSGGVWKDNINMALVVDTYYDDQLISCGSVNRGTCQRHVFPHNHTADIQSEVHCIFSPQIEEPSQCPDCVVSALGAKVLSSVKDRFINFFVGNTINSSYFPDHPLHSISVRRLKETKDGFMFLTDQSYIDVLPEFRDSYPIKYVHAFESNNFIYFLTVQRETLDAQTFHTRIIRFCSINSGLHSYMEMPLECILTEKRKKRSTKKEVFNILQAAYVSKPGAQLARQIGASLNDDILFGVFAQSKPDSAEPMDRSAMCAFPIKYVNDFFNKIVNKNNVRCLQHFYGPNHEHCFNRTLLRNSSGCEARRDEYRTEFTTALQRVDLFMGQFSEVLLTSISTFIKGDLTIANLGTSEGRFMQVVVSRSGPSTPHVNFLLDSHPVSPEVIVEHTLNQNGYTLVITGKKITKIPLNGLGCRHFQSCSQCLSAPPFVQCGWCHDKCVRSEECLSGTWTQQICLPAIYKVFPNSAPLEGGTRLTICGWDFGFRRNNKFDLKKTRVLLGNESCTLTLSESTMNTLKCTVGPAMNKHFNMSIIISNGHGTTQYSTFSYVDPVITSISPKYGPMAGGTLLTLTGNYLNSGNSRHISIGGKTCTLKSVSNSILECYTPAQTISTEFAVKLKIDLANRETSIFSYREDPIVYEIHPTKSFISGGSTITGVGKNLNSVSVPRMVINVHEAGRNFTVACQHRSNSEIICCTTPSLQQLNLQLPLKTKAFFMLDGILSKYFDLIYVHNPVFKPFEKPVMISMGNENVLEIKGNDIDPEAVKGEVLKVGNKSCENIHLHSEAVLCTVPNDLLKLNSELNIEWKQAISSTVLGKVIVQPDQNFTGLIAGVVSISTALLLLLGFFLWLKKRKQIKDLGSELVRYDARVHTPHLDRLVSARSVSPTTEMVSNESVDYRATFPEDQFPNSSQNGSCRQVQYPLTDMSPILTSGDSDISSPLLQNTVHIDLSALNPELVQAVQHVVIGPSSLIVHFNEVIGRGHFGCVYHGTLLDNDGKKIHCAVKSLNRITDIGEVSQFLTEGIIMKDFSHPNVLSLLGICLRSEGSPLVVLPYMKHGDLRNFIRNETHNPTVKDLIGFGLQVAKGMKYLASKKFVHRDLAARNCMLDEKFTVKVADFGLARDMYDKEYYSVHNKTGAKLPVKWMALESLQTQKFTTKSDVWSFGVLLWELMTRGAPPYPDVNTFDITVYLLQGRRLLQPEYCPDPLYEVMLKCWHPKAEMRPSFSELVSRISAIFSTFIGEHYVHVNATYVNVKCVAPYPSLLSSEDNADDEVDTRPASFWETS
Chain of IRK (insulin receptor kinase) (P06213 28-1382): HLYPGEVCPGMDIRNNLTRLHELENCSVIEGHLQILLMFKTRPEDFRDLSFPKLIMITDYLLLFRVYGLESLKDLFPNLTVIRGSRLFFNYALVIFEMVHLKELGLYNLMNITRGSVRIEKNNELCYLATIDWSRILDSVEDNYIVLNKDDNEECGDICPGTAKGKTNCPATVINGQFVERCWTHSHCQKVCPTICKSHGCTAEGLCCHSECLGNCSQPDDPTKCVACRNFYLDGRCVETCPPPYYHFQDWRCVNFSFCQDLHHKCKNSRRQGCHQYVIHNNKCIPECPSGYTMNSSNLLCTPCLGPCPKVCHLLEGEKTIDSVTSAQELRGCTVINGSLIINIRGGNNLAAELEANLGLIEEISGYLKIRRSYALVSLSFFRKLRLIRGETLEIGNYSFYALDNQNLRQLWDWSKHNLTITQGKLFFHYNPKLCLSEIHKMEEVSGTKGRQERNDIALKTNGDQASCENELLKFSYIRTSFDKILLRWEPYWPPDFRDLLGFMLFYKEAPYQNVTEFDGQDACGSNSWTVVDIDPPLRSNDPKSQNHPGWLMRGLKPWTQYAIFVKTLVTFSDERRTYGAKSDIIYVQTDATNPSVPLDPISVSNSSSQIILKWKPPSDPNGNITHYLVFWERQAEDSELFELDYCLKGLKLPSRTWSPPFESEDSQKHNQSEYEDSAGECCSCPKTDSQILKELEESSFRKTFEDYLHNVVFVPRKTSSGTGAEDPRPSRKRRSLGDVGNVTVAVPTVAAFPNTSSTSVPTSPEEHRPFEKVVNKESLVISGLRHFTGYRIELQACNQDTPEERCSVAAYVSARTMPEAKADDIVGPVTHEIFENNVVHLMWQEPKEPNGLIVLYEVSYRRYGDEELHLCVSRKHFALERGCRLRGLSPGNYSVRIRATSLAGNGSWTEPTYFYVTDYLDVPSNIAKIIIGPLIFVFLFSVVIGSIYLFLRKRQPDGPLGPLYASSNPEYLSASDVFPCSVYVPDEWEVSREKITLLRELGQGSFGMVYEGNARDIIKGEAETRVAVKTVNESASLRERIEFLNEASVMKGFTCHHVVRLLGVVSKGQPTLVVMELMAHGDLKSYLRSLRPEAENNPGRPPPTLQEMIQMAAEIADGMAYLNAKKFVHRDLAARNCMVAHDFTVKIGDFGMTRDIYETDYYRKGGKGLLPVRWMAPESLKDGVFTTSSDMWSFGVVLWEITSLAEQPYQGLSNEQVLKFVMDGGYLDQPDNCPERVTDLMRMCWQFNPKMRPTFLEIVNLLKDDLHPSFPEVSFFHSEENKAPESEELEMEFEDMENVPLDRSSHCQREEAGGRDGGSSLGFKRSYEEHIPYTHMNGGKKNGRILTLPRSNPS
Chain of ALK-C1156Y (Q9UM73 19-1620 C1156Y): as the sequence (Q9UM73 19-1620) above, with C1138Y counted along it
Chain of ALK-L1196M (Q9UM73 19-1620 L1196M): as the sequence (Q9UM73 19-1620) above, with L1178M counted along it
Chain of c-Src (P12931 whole entry): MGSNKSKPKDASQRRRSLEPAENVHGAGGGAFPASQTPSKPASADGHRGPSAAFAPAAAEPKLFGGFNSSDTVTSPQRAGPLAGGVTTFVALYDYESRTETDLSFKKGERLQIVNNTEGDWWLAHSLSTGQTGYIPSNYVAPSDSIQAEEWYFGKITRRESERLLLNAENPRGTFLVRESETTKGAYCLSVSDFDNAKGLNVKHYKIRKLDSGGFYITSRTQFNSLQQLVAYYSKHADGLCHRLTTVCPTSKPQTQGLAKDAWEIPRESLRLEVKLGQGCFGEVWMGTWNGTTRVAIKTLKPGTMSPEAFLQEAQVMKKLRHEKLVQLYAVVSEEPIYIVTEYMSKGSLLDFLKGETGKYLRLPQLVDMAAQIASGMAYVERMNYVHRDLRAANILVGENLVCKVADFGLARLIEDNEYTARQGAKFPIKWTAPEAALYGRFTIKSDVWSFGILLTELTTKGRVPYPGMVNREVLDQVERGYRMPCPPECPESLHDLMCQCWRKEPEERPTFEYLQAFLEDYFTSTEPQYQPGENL
Chain of ALK-F1174L (Q9UM73 19-1620 F1174L): as the sequence (Q9UM73 19-1620) above, with F1156L counted along it

CN1CCN(c2ccc(C(=O)Nc3n[nH]c4ncc(S(=O)(=O)c5cccc(F)c5)cc34)cc2)CC1 [10g, N-(5-((3-Fluorophenyl)sulfonyl)-1H-pyrazolo[3,4-b]pyridin-3-yl)-4–(4-methylpiperazin-1-yl)benzamide]
GI50 (ALK wt-TEL Ba/F3 cells; 72 h, CTG, mean ± SD of three independent experiments, read-out: GI50 Ba/F3 cell lines ALK wt-TEL): 205 ± 60 nM
GI50 (ALK wt-TEL Ba/F3 cells; stated in text for both ALK-driven Ba/F3 lines (ALK wt-TEL and ALK L1196M-TEL), read-out: GI50 ALK-driven Ba/F3 cells): < 205 nM
IC50 (c-Src): 7 nM
IC50 (ALK-C1156Y): 1.81 nM
Papp A→B at 120 min, 10 µM ([1]; Caco-2, Caco-2, 10 µM, 120 min, 37 °C, HBSS + 1%BSA, read-out: Mean Papp A to B): 2.56 ×10⁻⁶ cm/s
recovery at 120 min, 10 µM ([1]; Caco-2, Caco-2, 10 µM, 120 min, read-out: Mean recovery % A to B): 74.2%
recovery at 120 min, 10 µM ([1]; Caco-2, Caco-2, 10 µM, 120 min, read-out: Mean recovery % B to A): 92.3%
Papp A→B at 120 min, 10 µM ([1]; Caco-2, Caco-2 permeability class from Papp (A to B), read-out: Rank Papp): 2.5 to 10 ×10⁻⁶ cm/s
efflux ratio at 120 min, 10 µM ([1]; Caco-2, 10 µM, 120 min): 1.85
Papp B→A at 120 min, 10 µM ([1]; Caco-2, 10 µM, 120 min, 37 °C, HBSS + 1%BSA): 4.74 ×10⁻⁶ cm/s
Rank Papp (Caco-2 cells; Caco-2 permeability class from Papp (A to B)): moderate
Rank P-gp (Caco-2 cells; P-gp substrate status from efflux ratio): not a substrate
IC50 (ALK-F1174L): 8.17 nM
cell cycle arrest (H2228 cells [2]): significant enhancement of G1-S arrest
IC50 (Lyn): 33 nM
GI50 (Parental Ba/F3 cells): 3.5 ± 1.13 µM
IC50 [3]: 404 nM
IC50 (ALK-L1196M): < 0.5 nM
GI50 ([4]; Mus musculus, BaF3, 72 h, CTG, mean ± SD of three independent experiments, read-out: GI50 Ba/F3 cell lines ALKL1196M-TEL): 129 ± 20 nM
differential cytotoxicity against ALK-L1196M Ba/F3 cells vs. parental Ba/F3 cells compared with crizotinib ([4]; in words): much more favourable differential cytotoxicity
selectivity, more potent against ALK-wt than c-Met (c-Met; ALK-wt vs c-Met IC50): over 7000 fold
IC50 (c-Met; biochemical kinase assay): 3.78 µM
number of apoptotic cells (FACS) ([5]; ALK L1196M-TEL Ba/F3, 24 h, in words): increases the number of apoptotic cells in a dose-dependent manner
apoptosis induction compared with crizotinib ([5]; ALK L1196M-TEL Ba/F3, in words): more effectively than does crizotinib
IC50 (ALK-T1151-L1152insT): 6.19 nM
change in IC50 against ALK-wt on 10-fold increase in ATP concentration (ALK-wt; 10 vs 100 µM ATP): 50 fold
IC50 (ALK-wt; IC50 ALK-wt [ATP](50 μM), 50 μM ATP): 17.3 nM
IC50 (ALK-wt; IC50 ALK-wt [ATP](100 μM), 100 μM ATP): 24 nM and 24.9 nM
IC50 (ALK-wt; radiometric kinase assay, 10 µM ATP, read-out: IC50 ALK-wt): < 0.5 nM
apoptosis induction (FACS) (H2228 cells [6]): induces apoptosis in H2228 cells in a dose dependent fashion
